16 molecules from US5118811A, “Amino acid derivatives possessing prolyl endopeptidase-inhibitory activities” (Japan Tobacco Inc., priority 1989, dated 1992) can be followed below.

One assay addresses T1, cathepsin B (Bos taurus, UniProt P07688).
T1 construct: purchased Sigma; host or cells: bovine spleen
The assay is described as follows: Cathepsin B-Inhibitory Activity. Particulars: read-out: Inhibition rate, cathepsin B; for inhibition at 10 µM: 1 × 10^-5 M; for inhibition at 1 µM: 1 × 10^-6 M; for inhibition at 0.01 µM: 1 × 10^-8 M. In kind it is biochemical, bovine. The procedure: Similarly, by following the procedure mentioned above, but employing a 100 mM sodium phosphate buffer (pH 6.0; containing 1.33 mM EDTA Na2) as a buffer for measurement, a 0.02 μM solution of cathepsin B (derived from bovine spleen, Sigma) in the same buffer as an enzyme solution and a 200 μM solution of 7-(N-benzyloxycarbonyl-phenylaranyl-arginyl)-4-methylcoumarinamide (Peptide Institute, Inc.) in the same buffer as a substrate solution. Each fluorescence (f1, f2 and f3) was also determined, respectively.
(§1) Using the fluorescence x1, x2 and x3 measured in the above-mentioned manner, the inhibitory rate against various proteases was calculated by the following formula where x stands for b, c, d, e or f: [formula]

A further assay concerns the target T2, elastase (Sus scrofa, UniProt P00772).
T2 construct: purchased Sigma; host or cells: swine pancreas
The assay is described as follows: Elastase-Inhibitory Activity. It counts as biochemical, swine. To be noted: read-out: Inhibition rate, elastase; for inhibition at 10 µM: 1 × 10^-5 M; for inhibition at 1 µM: 1 × 10^-6 M; for inhibition at 0.01 µM: 1 × 10^-8 M. As for the experimental part: Similarly, by following the procedure mentioned above, but employing a 1 mM Tris-HCl buffer (pH 8.5) as a buffer for measurement, a 0.2 μM solution of elastase (derived from swine pancreas, Sigma) in the same buffer as an enzyme solution and a 200 μM solution of 7-(N-succinyl-aranyl-prolyl-aranyl)-4-methylcoumarinamide (Peptide Institute, Inc.) in the same buffer as a substrate solution. Each fluorescence (e1, e2 and e3) was also determined, respectively.
as §1

The next assay concerns the target T3, prolyl endopeptidase (Rattus norvegicus, UniProt O70196).
T3 construct: prolyl endopeptidase extracted from rat brain; from tissue; host or cells: rat brain
The assay is described as follows: Prolyl Endopeptidase-Inhibitory Activity. It counts as biochemical. To be noted: for inhibition at 10 µM: 1 × 10^-5 M; for inhibition at 10 µM / inhibition at 1 µM / inhibition at 0.01 µM: read-out: Inhibition rate, prolyl endopeptidase; for IC50: prolyl endopeptidase extracted from rat brain, pH 7.0, 30° C., preincubated 30 minutes, 1 hour; for inhibition at 1 µM: 1 × 10^-6 M; for inhibition at 0.01 µM: 1 × 10^-8 M. The procedure: A mixture of a 0.1M potassium sodium phosphate buffer (pH 7.0) (2675 μl), a solution of the compounds of the present invention in a 0.1M potassium sodium phosphate buffer (pH 7.0) (100 μl) and a solution of prolyl endopeptidase extracted from rat brain in a 25 mM sodium phosphate buffer (100 μl) [123 unit/1, pH 6.8, containing 1 mM dithiothreitol and 0.5 mM EDTA, prepared by the method described in J. Neurochem., 35, 527 (1980)] was preincubated at 30° C. for 30 minutes. Thereto was added a 0.2 mM solution of 7-(N-succinyl-glycyl-prolyl)-4-methylcoumarinamide (Peptide Institute, INC.) in a 0.1M potassium sodium phosphate buffer (pH 7.0) (125 μl), and the mixture was incubated at 30° C. for 1 hour. The reaction mixture was immersed in ice (0° C.) to terminate the reaction, and the fluorescence (a1) was determined ten minutes later (excitation at 370 nm and emission at 440 nm). Concurrently, there were conducted the experiment wherein, in the above system, the prolyl endopeptidase solution was substituted for a 25 mM sodium phosphate buffer (pH 6.8, containing 1 mM dithiothreitol and 0.5 mM EDTA) and the experiment wherein the solution of the compounds of the present invention was also substituted for a 0.1M potassium sodium phosphate buffer (pH 7.0). Each fluorescence (a2 and a3) was also determined respectively [See Tanpakushitsu Kakusan Koso, 29, 127 (1984)]. The prolyl endopeptidase-inhibition rate was calculated by the following formula, and IC50, a concentration of a compound producing 50% inhibition, was estimated by semilogarithmic graph paper. [formula]

The next assay addresses T4, chymotrypsin (Bos taurus, UniProt P00766).
T4 construct: purchased Sigma; host or cells: bovine pancreas
The experiment in a line: Chymotrypsin-Inhibitory Activity. In kind it is biochemical, bovine. Particulars: read-out: Inhibition rate, chymotrypsin; for inhibition at 10 µM: 1 × 10^-5 M; for inhibition at 1 µM: 1 × 10^-6 M; for inhibition at 0.01 µM: 1 × 10^-8 M. The procedure:
Similarly, by following the procedure mentioned above, but employing a 50 mM Tris-HCl buffer (pH 8.0) as a buffer for measurement, a 0.2 μM solution of chymotrypsin (derived from bovine pancrease, Sigma) in the same buffer as an enzyme solution and a 200 μM solution of 7-(N-succinyl-leucyl-leucyl-valyl-tyrosyl)-4-methylcoumarinamide (Peptide Institute, Inc.) in the same buffer as a substrate solution. Each fluorescence (c1, c2 and c3) was also determined, respectively.
as §1

A further assay has as its system leucine aminopeptidase. The experiment in a line: Leucine Aminopeptidase-Inhibitory Activity. In kind it is biochemical, swine. The procedure: Similarly, by following the procedure mentioned above, but employing a 50 mM Tris-HCl buffer (pH 8.0) as a buffer for measurement, a 0.2 μM solution of leucine aminopeptidase (derived from swine kidney, Sigma) in the same buffer as an enzyme solution and a 200 μM solution of 7-(leucyl-4-methylcoumarinamide (Peptide Institute, Inc.) in the same buffer as a substrate solution. Each fluorescence (d1, d2 and d3) was also determined, respectively.
as §1

The target of the next assay is T5, trypsin (Bos taurus, UniProt P00760).
T5 construct: purchased Sigma; host or cells: bovine pancreas
T5 sequence (P00760 24-246): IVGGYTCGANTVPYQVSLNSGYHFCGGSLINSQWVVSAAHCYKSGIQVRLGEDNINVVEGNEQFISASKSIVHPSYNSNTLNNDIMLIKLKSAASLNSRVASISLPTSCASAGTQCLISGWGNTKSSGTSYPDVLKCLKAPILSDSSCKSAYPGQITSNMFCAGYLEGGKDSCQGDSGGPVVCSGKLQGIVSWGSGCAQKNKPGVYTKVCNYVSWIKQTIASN
The assay is described as follows: Trypsin-Inhibitory Activity. In kind it is biochemical, bovine. Particulars: read-out: Inhibition rate, trypsin; for inhibition at 10 µM: 1 × 10^-5 M; for inhibition at 1 µM: 1 × 10^-6 M; for inhibition at 0.01 µM: 1 × 10^-8 M. The procedure: In the present invention, a 50 mM Tris-HCl buffer (pH 8.0) was employed as a buffer for measurement.
To a mixture of the above-mentioned buffer (850 μl), a solution of the compounds of the present invention in the same buffer (50 μl) and a 0.02 μM solution of trypsin (derived from bovine pancreas, Sigma) in the same buffer (50 μl) was added a 200 μM solution of 7-(prolyl-phenylaranyl-arginyl)-4-methylcoumarinamide (Peptide Institute, Inc.) in the same buffer (50 μl), and the mixture was incubated at 30° C. for 1 hour. The reaction mixture was immersed in ice (0° C.) to terminate the reaction, and the fluorescence (b1) was determined 1 hour later (excitation at 370 nm and emission at 440 nm). Concurrently, there were conducted the experiment wherein, in the system above, the trypsin solution was substituted for a buffer alone, and the experiment wherein the solution of the compounds of the present invention was also substituted for a buffer above. Each fluorescence (b2 and b3) was also determined respectively.
as §1

T3 sequence (O70196 whole entry): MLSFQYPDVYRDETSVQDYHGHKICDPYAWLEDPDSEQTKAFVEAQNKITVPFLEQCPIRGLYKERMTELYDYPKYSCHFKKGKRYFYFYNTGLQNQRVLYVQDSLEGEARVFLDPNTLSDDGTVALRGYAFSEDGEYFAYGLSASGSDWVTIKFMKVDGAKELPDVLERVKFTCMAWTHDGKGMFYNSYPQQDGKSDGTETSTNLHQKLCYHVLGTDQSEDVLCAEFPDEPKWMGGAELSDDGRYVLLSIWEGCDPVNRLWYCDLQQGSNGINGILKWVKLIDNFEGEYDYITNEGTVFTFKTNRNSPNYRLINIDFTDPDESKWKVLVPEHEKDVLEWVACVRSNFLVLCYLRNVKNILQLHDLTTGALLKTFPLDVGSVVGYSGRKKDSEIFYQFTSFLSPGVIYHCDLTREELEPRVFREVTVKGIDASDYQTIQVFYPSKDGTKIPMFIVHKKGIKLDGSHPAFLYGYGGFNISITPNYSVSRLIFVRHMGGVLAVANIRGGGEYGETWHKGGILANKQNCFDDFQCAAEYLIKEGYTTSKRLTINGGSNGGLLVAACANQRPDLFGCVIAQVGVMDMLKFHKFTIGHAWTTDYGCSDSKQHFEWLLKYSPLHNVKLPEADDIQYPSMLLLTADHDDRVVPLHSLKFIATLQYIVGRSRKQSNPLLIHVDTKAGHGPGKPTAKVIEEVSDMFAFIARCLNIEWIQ
T2 sequence (P00772 27-266): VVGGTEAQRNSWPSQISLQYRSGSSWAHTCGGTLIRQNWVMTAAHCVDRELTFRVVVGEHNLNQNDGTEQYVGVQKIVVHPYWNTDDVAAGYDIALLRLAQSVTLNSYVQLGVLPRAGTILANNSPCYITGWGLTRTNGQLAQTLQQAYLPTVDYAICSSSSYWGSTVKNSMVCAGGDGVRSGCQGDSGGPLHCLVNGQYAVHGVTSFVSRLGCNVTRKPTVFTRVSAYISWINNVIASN

Regarding `O=C1CCCN1CC(=O)N1CCC[C@H]1C(=O)N1CCSC1` [Compound 8, 3-{N-[(2-Oxo-1-pyrrolidinyl)acetyl]-L-prolyl}thiazolidine], the inhibition at 10 µM on cathepsin B was determined as 0%; at elastase it was 0%; on prolyl endopeptidase, 96%; at chymotrypsin, 0%; at trypsin, 0%. Moreover, on prolyl endopeptidase, the IC50 is 200 nM. In the assay on leucine aminopeptidase (1 × 10^-5 M), the “Inhibition rate, leucine aminopeptidase” value came out at 0%.
Take `O=C[C@@H]1CCCN1C(=O)CCC(=O)NCCCN1CCCC1=O` [Compound 11, N-{4-Oxo-4-[3-(2-oxo-1-pyrrolidinyl)propylamino]butanoyl}-L-prolinal]: the inhibition at 1 µM at cathepsin B worked out at 0%; on elastase, 0%; on prolyl endopeptidase, 97%; on chymotrypsin it was 0%; at trypsin, 0%. At prolyl endopeptidase, this molecule showed an IC50 of 25 nM. In addition, the “Inhibition rate, leucine aminopeptidase” value in the assay with leucine aminopeptidase (1 × 10^-6 M) is listed as 0%.
Take `CC(=O)ON=C[C@@H]1CCCN1C(=O)[C@@H]1CCCN1C(=O)OCc1ccccc1` [Compound 15, (2S)-1-(N-Benzyloxycarbonyl-L-prolyl)-2-pyrrolidinecarboxaldehyde O-acetyloxime]: the inhibition at 1 µM on cathepsin B amounted to 0%; on elastase, 0%; on prolyl endopeptidase, 100%; on chymotrypsin, 0%; on trypsin, 0%. The molecule further registered an IC50 on prolyl endopeptidase of 4.5 nM. Besides, in the assay on leucine aminopeptidase (1 × 10^-6 M), the “Inhibition rate, leucine aminopeptidase” value came out at 0%.
For the molecule `O=C[C@@H]1CCCN1C(=O)[C@@H]1CCCN1C(=O)CN1CCCC1=O` [Compound 4, N-[(2-Oxo-1-pyrrolidinyl)acetyl]-L-prolyl-L-prolinal], the inhibition at 0.01 µM at cathepsin B was found to be 0%; at elastase, 0%; at prolyl endopeptidase it was 100%; on chymotrypsin, 0%; on trypsin, 0%. Also, on prolyl endopeptidase, it took 0.4 nM to reach half-maximal inhibition (IC50). For the same molecule, the “Inhibition rate, leucine aminopeptidase” value in the assay with leucine aminopeptidase (1 × 10^-8 M) worked out at 0%.
In the case of `CC(=O)ON=C[C@@H]1CSCN1C(=O)[C@@H]1CCCN1C(=O)CN1CCCC1=O` [Compound 23, (4R)-3-{N-[(2-Oxo-1-pyrrolidinyl)acetyl]-L-prolyl}-4-thiazolidinecarboxaldehyde O-acetyloxime], the IC50 against prolyl endopeptidase came out at 640 nM.
The same measure, in the same setting: the result for `O=C[C@@H]1CSCN1C(=O)[C@@H]1CSCN1C(=O)CN1CCCC1=O` [Compound 7, N-[(2-Oxo-1-pyrrolidinyl)acetyl]-L-thioprolyl-L-thioprolinal] reads 5 nM.
In the case of `CC(=O)ON=C[C@@H]1CCCN1C(=O)CCC(=O)NCc1ccc(Cl)cc1` [Compound 21, (2S)-1-[4-Oxo-4-(4-chlorobenzylamino)butanoyl]-2-pyrrolidinecarboxaldehyde O-acetyloxime], the inhibition at 1 µM worked out at 0% at cathepsin B; 0% on elastase; 100% on prolyl endopeptidase; 0% at chymotrypsin; 10% at trypsin. In addition, on prolyl endopeptidase, the IC50 is 40 nM. In addition, the “Inhibition rate, leucine aminopeptidase” value with leucine aminopeptidase (1 × 10^-6 M) is 0%.
`N#C[C@@H]1CCCN1C(=O)[C@@H]1CCCN1C(=O)OCc1ccccc1` [Compound 19, (2S)-1-(N-Benzyloxycarbonyl-L-prolyl)-2-cyanopyrrolidine]: the inhibition at 0.01 µM amounted to 0% on cathepsin B; 0% on elastase; 100% at prolyl endopeptidase; 0% on chymotrypsin; 0% at trypsin. On prolyl endopeptidase, the half-maximal inhibitory concentration (IC50) was 0.35 nM. The “Inhibition rate, leucine aminopeptidase” value in the assay with leucine aminopeptidase (1 × 10^-8 M) was 0%.
In turn, `O=C[C@@H]1CSCN1C(=O)[C@@H]1CCCN1C(=O)CN1CCCC1=O` [Compound 5, N-[(2-Oxo-1-pyrrolidinyl)acetyl]-L-prolyl-L-thioprolinal] returned an IC50 against prolyl endopeptidase of 3 nM.
In turn, `N#C[C@@H]1CSCN1C(=O)[C@@H]1CCCN1C(=O)CN1CCCC1=O` [Compound 24, (4R)-3-{N-[(2-Oxo-1-pyrrolidinyl)acetyl]-L-prolyl}-4-cyanothiazolidine] returned an IC50 at prolyl endopeptidase of 34 nM.
For `O=C([C@@H]1CCCN1C(=O)OCc1ccccc1)N1CCC[C@H]1C=NOCc1ccccc1` [Compound 18, (2S)-1-(N-Benzyloxycarbonyl-L-prolyl)-2-pyrrolidinecarboxaldehyde O-benzyloxime], the inhibition at 10 µM turned out to be 0% on cathepsin B; 0% at elastase; 100% on prolyl endopeptidase; 0% at chymotrypsin; 0% at trypsin. For the same molecule, on prolyl endopeptidase, it took 40 nM to reach half-maximal inhibition (IC50). In the assay with leucine aminopeptidase (1 × 10^-5 M), the “Inhibition rate, leucine aminopeptidase” value is 0%.
`N#C[C@@H]1CSCN1C(=O)[C@@H]1CSCN1C(=O)OCc1ccccc1` [Compound 20, (4R)-3-(N-Benzyloxycarbonyl-L-thioprolyl)-4-cyanothiazolidine]: the concentration for half-maximal inhibition (IC50) at prolyl endopeptidase is 3.2 nM.
On the same count and under the same terms, the same measure for `O=C[C@@H]1CCCN1C(=O)[C@@H]1CSCN1C(=O)CN1CCCC1=O` [Compound 6, N-[(2-Oxo-1-pyrrolidinyl)acetyl]-L-thioprolyl-L-prolinal]: 1.5 nM; for `CC(=O)ON=C[C@@H]1CSCN1C(=O)[C@@H]1CSCN1C(=O)OCc1ccccc1` [Compound 17, (4R)-3-(N-Benzyloxycarbonyl-L-thioprolyl)-4-thiazolidinecarboxaldehyde O-acetyloxime]: 310 nM.
Still for that read-out and setting: the result for `CC(=O)ON=C[C@@H]1CSCN1C(=O)[C@@H]1CCCN1C(=O)OCc1ccccc1` [Compound 16, (4R)-3-(N-Benzyloxycarbonyl-L-prolyl)-4-thiazolidinecarboxaldehyde O-acetyloxime] reads 100 nM; that for `O=C[C@@H]1CCCN1C(=O)CCC(=O)N1CCCC1=O` [Compound 10], 70 nM.
